A short description of series [1]: Drug uptake in Sprague-Dawley rat motor cortex at […], iv from 20 to 40 mins by microPET analysis in presence of LY341495. It is filed as ADME, organism-based. Conditions: in vivo; call rule not given here.
Series [2] relates to Brain. Description: Drug uptake in Sprague-Dawley rat brain at […], iv from 1 to 40 mins by microPET analysis. It is filed as ADME, organism-based. Conditions: in vivo.
Series [3] relates to Striatum. Description: Drug uptake in Sprague-Dawley rat striatum at […], iv from 1 to 40 mins by microPET analysis. The settings on record: in vivo. It is filed as ADME, organism-based.
The subject of series [4] is Hippocampus. Description: Drug uptake in Sprague-Dawley rat hippocampus at […], iv from 20 to 40 mins by microPET analysis in presence of LY341495. In kind it is ADME, organism-based. The settings on record: in vivo.
Series [5] has as its system Brain. Description: Drug uptake in Sprague-Dawley rat brain at […], iv from 20 to 40 mins by microPET analysis in presence of LY341495. It is filed as ADME, organism-based. The settings on record: in vivo.
In series [6] the test system is Cortex. Description: Drug uptake in Sprague-Dawley rat cortex at […], iv from 1 to 40 mins by microPET analysis. In kind it is ADME, organism-based. The settings on record: in vivo.
The subject of series [7] is Cerebellum. Description: Drug uptake in Sprague-Dawley rat cerebellum at […], iv from 20 to 40 mins by microPET analysis in presence of LY341495. It is filed as ADME, organism-based. Conditions: in vivo.
The subject of series [8] is Striatum. Description: Drug uptake in Sprague-Dawley rat striatum at 0.4 uCi, iv from 20 to 40 mins by microPET analysis in presence of LY341495. It is filed as ADME, organism-based. The settings on record: in vivo.
Series [9] deals with Brain. Description: Drug uptake in Sprague-Dawley rat brain at […], iv at 2 mins by microPET analysis. It is filed as ADME, organism-based. Conditions: in vivo.
The test system of series [10] is Hippocampus. Description: Drug uptake in Sprague-Dawley rat hippocampus at […], iv from 1 to 40 mins by microPET analysis. It is filed as ADME, organism-based. Conditions: in vivo.
A short description of series [11]: Drug uptake in Sprague-Dawley rat olfactory lobe at […], iv from 20 to 40 mins by microPET analysis in presence of LY341495. In kind it is ADME, organism-based. Conditions: in vivo.
Series [12] deals with Thalamus. Description: Drug uptake in Sprague-Dawley rat thalamus at 0.4 uCi, iv from 20 to 40 mins by microPET analysis in presence of LY341495. It is filed as ADME, organism-based. Conditions: in vivo.
Series [13] is described as follows: Drug uptake in Sprague-Dawley rat cingulate cortex at […], iv from 20 to 40 mins by microPET analysis in presence of LY341495. In kind it is ADME, organism-based. Conditions: in vivo.
For series [14], the target named is T1, Metabotropic glutamate receptor 2 (Homo sapiens, UniProt Q14416). Description: Antagonist activity at mGLUR2 expressed in CHO cells assessed as inhibition of glutamate-induced inhibition of forskolin-stimulated cAMP production. Background: Cyclic AMP is a second messenger, typically raised through Gs and lowered through Gi signalling.
The target of series [15] is T1, Metabotropic glutamate receptor 2. Description: Binding affinity to mGLUR2.
Series [16] concerns the target T2, Metabotropic glutamate receptor 3 (Homo sapiens, UniProt Q14832). Description: Antagonist activity at mGLUR3 expressed in CHO cells assessed as inhibition of glutamate-induced inhibition of forskolin-stimulated cAMP production. In kind it is functional, cell-based.
Series [17] has as its target T2, Metabotropic glutamate receptor 3. Description: Binding affinity to mGLUR3.
Series [18] relates to Brain. Description: Drug uptake in Sprague-Dawley rat brain at […], iv from 20 to 25 mins by microPET analysis. The settings on record: in vivo. It is filed as ADME, organism-based.
In series [19] the target is T1, Metabotropic glutamate receptor 2. Description: Agonist activity at mGLUR2 expressed in CHO cells. It is filed as functional, cell-based.
In series [20] the target is T2, Metabotropic glutamate receptor 3. Description: Agonist activity at mGLUR3 expressed in CHO cells. It is filed as functional, cell-based.
In series [21] the target is Metabotropic glutamate receptor 3 (Rattus norvegicus, UniProt P31422). Description: Agonist activity at mGLUR3 in rat cerebral cortex assessed as inhibition of forskolin-stimulated cAMP production. It is filed as functional, tissue-based.

The structures appear in SMILES notation.

These results are taken from ChEMBL document CHEMBL2176994, “Radiosynthesis of PET radiotracer as a prodrug for imaging group II metabotropic glutamate receptors in vivo” (Bioorg Med Chem Lett, 2012).

T1 sequence (Q14416 whole entry): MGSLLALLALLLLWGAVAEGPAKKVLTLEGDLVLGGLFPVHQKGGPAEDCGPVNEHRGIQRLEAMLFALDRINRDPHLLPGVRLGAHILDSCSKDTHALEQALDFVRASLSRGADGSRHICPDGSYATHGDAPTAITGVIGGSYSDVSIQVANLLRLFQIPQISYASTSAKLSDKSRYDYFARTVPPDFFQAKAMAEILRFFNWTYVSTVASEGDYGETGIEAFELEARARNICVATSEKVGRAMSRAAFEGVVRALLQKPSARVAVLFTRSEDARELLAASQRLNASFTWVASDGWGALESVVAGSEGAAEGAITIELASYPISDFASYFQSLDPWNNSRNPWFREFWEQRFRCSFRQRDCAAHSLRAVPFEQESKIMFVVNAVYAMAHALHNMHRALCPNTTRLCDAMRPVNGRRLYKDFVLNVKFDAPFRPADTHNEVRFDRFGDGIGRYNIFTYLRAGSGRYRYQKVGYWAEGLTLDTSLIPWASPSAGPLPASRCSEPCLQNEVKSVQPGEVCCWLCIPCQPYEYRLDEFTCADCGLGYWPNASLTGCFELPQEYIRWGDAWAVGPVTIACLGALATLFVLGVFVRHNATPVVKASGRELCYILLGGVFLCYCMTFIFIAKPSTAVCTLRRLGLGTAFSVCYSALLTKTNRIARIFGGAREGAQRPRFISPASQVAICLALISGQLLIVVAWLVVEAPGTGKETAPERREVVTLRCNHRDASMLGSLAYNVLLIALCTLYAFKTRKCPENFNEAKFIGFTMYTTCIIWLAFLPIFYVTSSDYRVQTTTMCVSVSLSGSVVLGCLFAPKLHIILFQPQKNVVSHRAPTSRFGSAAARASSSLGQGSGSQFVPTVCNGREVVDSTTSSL
T2 sequence (Q14832 whole entry): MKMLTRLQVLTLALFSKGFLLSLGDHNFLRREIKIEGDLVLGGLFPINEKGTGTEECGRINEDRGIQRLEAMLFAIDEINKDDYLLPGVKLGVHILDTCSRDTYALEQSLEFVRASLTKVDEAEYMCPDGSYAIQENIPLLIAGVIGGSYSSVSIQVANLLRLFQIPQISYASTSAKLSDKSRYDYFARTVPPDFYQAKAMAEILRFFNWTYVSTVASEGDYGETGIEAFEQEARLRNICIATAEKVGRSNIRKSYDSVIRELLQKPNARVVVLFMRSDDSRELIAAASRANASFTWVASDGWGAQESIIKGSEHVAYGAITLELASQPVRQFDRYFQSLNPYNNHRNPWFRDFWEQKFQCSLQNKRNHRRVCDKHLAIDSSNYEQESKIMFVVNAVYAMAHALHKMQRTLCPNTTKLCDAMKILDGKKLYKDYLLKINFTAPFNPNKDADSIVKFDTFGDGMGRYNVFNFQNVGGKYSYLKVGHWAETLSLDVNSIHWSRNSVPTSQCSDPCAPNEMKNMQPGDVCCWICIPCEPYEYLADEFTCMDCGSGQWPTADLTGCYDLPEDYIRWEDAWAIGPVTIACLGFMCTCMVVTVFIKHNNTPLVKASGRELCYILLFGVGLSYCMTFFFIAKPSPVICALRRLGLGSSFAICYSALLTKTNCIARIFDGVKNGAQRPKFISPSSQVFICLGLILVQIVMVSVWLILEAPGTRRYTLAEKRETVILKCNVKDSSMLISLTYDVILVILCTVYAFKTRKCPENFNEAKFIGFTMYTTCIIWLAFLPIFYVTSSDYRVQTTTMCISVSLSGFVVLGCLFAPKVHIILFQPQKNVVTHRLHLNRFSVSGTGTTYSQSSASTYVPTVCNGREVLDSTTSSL
Chain of Metabotropic glutamate receptor 3 (Rattus norvegicus, UniProt P31422) (P31422 whole entry): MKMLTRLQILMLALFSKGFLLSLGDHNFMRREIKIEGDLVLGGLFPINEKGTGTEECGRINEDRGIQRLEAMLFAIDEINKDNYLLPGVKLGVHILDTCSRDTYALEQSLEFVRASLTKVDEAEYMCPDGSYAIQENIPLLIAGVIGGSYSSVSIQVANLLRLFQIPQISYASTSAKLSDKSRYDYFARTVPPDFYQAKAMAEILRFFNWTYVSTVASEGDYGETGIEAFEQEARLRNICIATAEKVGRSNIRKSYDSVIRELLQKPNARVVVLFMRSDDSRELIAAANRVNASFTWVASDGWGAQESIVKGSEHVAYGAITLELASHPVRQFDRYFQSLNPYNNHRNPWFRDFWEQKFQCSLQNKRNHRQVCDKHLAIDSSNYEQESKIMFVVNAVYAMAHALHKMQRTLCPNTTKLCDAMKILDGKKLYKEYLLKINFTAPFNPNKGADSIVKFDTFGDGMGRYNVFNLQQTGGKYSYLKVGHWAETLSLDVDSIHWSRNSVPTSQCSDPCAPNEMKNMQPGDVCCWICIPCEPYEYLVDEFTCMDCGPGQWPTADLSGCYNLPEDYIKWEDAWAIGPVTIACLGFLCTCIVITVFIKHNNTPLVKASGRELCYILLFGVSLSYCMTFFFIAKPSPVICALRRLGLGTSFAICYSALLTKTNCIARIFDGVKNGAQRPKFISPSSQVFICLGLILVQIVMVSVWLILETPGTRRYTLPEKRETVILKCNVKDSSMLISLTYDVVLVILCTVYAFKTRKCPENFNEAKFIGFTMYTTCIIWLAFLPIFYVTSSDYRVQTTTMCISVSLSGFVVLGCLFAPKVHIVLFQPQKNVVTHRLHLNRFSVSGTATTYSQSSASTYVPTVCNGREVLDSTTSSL

In the case of `COC(=O)[C@H]1C[C@@H]1[C@@](N)(CCc1cccc(O[11CH3])c1)C(=O)OC`, the Drug uptake result in series [1] is listed as “Not Active”; in series [2], “Active”; in [3], “Active”; in [4], “Not Active”; in series [5] it was “Not Active”; in series [6], “Active”. Also, the Drug uptake result in series [7] is recorded as “Not Active”; in series [8] it was “Not Active”; in series [9] it was 2.5 %ID/cm3; in series [10], “Active”; in series [11], “Active”; in [12] it was “Not Active”. The Drug uptake result in [13] is recorded as “Not Active”.
In general, IC50 refers to the midpoint of a concentration-inhibition curve. The term Ki denotes the dissociation constant of the complex between target and ligand, obtained from inhibition or displacement. Higher therefore signals a looser hold on the target. For `N[C@]1(C(=O)O)[C@H]2[C@@H](C[C@H]1OCc1ccc(Cl)c(Cl)c1)[C@]2(F)C(=O)O`, the half-inhibitory concentration (IC50) in [14] came out at 20 nM; in series [16] it was 24 nM. Further, the figures for the inhibitory constant (Ki) in [15] and in series [17] were 2.2 nM and 4.5 nM, respectively.
Turning to `[11CH3]Oc1cccc(CC[C@@](N)(C(=O)O)[C@H]2C[C@@H]2C(=O)O)c1`, in series [18], the Drug uptake entry is listed as “Not Active”.
A word on the EC50: it is the concentration at which the effect is half-maximal. As to `N[C@@]1(C(=O)O)CC(=O)[C@@H]2[C@H]1[C@@]2(F)C(=O)O`, the EC50 worked out at 0.57 nM in [19] and 2.07 nM in series [20].
Take `N[C@@]1(C(=O)O)CC[C@H]2[C@H](C(=O)O)[C@H]21`: the EC50 in [21] worked out at 38 nM.
